Results on six molecules are retold here after patent publication US9796672B2, “Isoindoline compositions and methods for treating neurodegenerative disease” (Cognition Therapeutics, Inc., priority 2014, dated 2017).

Data set [1] deals with Abeta oligomer-induced synapse loss in primary hippocampal neurons. Briefly: Abeta 1-42 oligomer binding and synapse loss assay. In kind it is cell-based, rat.
Protocol: Primary hippocampal neuronal culture is established as in the membrane trafficking assay above. […] Pretreatment with test compounds for 1 hr and addition of Abeta oligomers or no oligomer (vehicle alone) is followed by incubation for an additional 23 hrs.
The plates are then washed 3× with PBS for 5 min each. The plates are blocked at RT for 1 hr in 5% goat serum and 0.5% Triton X-100 in PBS. Primary antibodies (anti-MAP 2 polyclonal, Millipore #AB5622 and anti-Beta Amyloid 6E10 monoclonal, Covance #SIG-39300, at 1 microgram/ml, and rabbit polyclonal anti-synaptophysin, Anaspec, at 0.2 microgram/ml) were diluted 1:1000 in 5% goat serum with PBS. Primary antibodies are incubated overnight at 4° C. The plates are then washed 3× with PBS for 5 min each. Secondary antibodies (Alex Flor 488 polyclonal, Invitrogen #A11008 and Alexa Flor 647 monoclonal, Invitrogen #A21235) are diluted 1:1000 in 5% goat serum with PBS. Secondary antibodies are incubated at RT for 1 hr. The plates are washed once with PBS. DAPI (4′,6-diamidino-2-phenylindole, Invitrogen) is then applied at 0.03 ug/ul and incubated at RT for 5 min, then washed with PBS.
In data set [2] the test system is MDA-MB-435 or MDA-MB231 or SKOV-3 cells. Briefly: Tumor cell viability (MTS) assay. Format: cell-based. Here is the method:
The cytotoxicity of test compounds is determined using the CellTiter96 Aqueous One Solution Assay (Promega, Madison, Wis.). Briefly, MDA-MB-435 or MDA-MB231 or SKOV-3 cells were seeded in a 96-well plate at a density of 2000 cells/well on the day prior to treatment with sigma-2 receptor selective ligands. […] The plate is read at 490 nm in a Victor3 plate reader (PerkinElmer Life and Analytical Sciences, Shelton, Conn.). The EC^50 value, defined as the concentration of the sigma ligand required to inhibit cell viability by 50% relative to untreated cells, is determined from the dose response curve for each cell line. Siramesine is accepted as an agonist.

Data set [3] concerns neurons. To be noted: 24 hours treatment; cited from earlier work.
In data set [4] the test system is caspase-3. To be noted: cited from earlier work; for caspase-3 activation: tumor cells and neurons.

The structures appear in SMILES notation. “Also recorded” adds a separate entry of the source.

Consider `CCC(Oc1ccc(Cl)cc1)C(=O)OC1CC2CCC(C1)N2C` (stereo not drawn) [SM-21], for which, in data set [1], the “elimination of Abeta oligomer-induced synapse loss” value was “only weakly active in eliminating synapse loss” and the synapse loss recovery came to 20%.
As for `COc1cc2c(cc1OC)CN(CCCCNC(=O)c1cc(C)ccc1OC)CC2` [RHM-1, N-[4-(3,4-dihydro-6,7-dimethoxyisoquinolin-2(1H)-yl)butyl]-2-methoxy-5-methylbenzamide], the Action entry in data set [2] was “Antagonist”. The “nuclear morphology / nuclear intensity in neurons” value in data set [3] is on record as “do not decrease nuclear intensity”. In data set [4], the caspase-3 activation entry was “do not induce caspase-3 activity”. Also, the “inhibition of caspase-3 activation” value in data set [4] (tumor cells) is reported as “inhibits the activation in tumor cells”.
With `Fc1ccc(-n2cc(CCCCN3CCC4(CC3)OCc3ccccc34)c3ccccc32)cc1` [Siramesine], the Action entry in data set [2] is given as “Full agonist”. Further, in data set [3], the “nuclear morphology / nuclear intensity in neurons” value is listed as “cause significant abnormal nuclear morphology in neurons”. Also, the caspase-3 activation result in data set [4] is “activate caspase-3 in tumor cells and neurons; also recorded: induces caspase-3 activity”.
As for `CCCN(CCC)CCc1ccc(OC)c(OCCc2ccccc2)c1` [NE-100], the “elimination of Abeta oligomer-induced synapse loss” value in data set [1] was “completely eliminated synapse loss”.
As for `O=C(CCCN1CCC(O)(c2ccc(Cl)cc2)CC1)c1ccc(F)cc1` [haloperidol], in data set [1], the “elimination of Abeta oligomer-induced synapse loss” value is on record as “completely eliminated synapse loss”.
Broadly, the IC50 is the midpoint of a concentration-inhibition curve. Regarding `COc1ccc(C)cc1NC(=O)OC1C[C@H]2CCC[C@@H](C1)N2CCCCCCN` (stereo partly drawn) [SV-119], in data set [2], the Action entry was “Full agonist”. Moreover, the IC50 in data set [2] (read-out: IC50, 48 hrs., Tumor cell viability, 48 hrs) turned out to be 21.7 ± 2.9 µM. In data set [3], the “nuclear morphology / nuclear intensity in neurons” value is “cause significant abnormal nuclear morphology in neurons”. Also, the caspase-3 activation result in data set [4] was “activate caspase-3 in tumor cells and neurons”.
